SMILES strings stand for the structures.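 Protocol summary: plate cells (96-well), add compound at 5 concentrations, incubate 48 h, interpolate endpoints linearly. Abbreviation: GI50, concentration required for 50% inhibition of growth.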 The source made the active and inactive calls. No stated cut-off is given here; in the data, active = GI50 up to about 1.1 µM and inactive = higher.

Test systems include SR; UACC-62; NCI-H226; SF-295; MCF7; UACC-257; CAKI-1; COLO 205; OVCAR-5; TK-10; HT-29; HCT-15; NCI-H522; EKVX; MOLT-4; LOX IMVI; HL-60; HOP-92; RXF 393.
What all share (test): NCI tumour cell line growth inhibition, 48 h

With `CC(C)c1ccc2nc3ccc(C(=O)NCCN4CCN(c5ccccc5)CC4)cn3c(=O)c2c1`, the GI50 was 2.51 µM (inactive) in the test with SR; 3.87 µM (inactive) with UACC-62; > 100 µM (inactive) in the test on NCI-H226; 2.22 µM (inactive) with SF-295; 10 µM (inactive) with MCF7; 4.67 µM (inactive) with UACC-257. Moreover, the GI50 is 5.06 µM (inactive) in the test on CAKI-1; 3.33 µM (inactive) in the test on COLO 205; > 100 µM (inactive) with OVCAR-5; 3.56 µM (inactive) in the test on TK-10; 4.06 µM (inactive) in the test on HT-29; 6.38 µM with HCT-15. The GI50 in the test with NCI-H522 is 5.58 µM (inactive); in the test with EKVX it was > 100 µM (inactive); in the test with MOLT-4, 1.87 µM (inactive).

Regarding `Nn1c(=S)[nH]nc(/C=C/c2c(O)ccc3ccccc23)c1=O`, the GI50 was 4.67 µM (inactive) in the test on SR; 4.88 µM (inactive) in the test on UACC-62; 8.85 µM (inactive) with SF-295; 2.72 µM (inactive) in the test on MCF7; 5.3 µM (inactive) in the test on UACC-257; 2.48 µM (inactive) in the test with LOX IMVI. Moreover, the GI50 in the test on CAKI-1 was 5.55 µM (inactive); in the test on COLO 205, 7.18 µM (inactive); with OVCAR-5 it was 7.08 µM (inactive); with HL-60, 0.203 µM (active); in the test with HT-29, 4.03 µM (inactive); with HCT-15, 3.13 µM. In addition, the figures for the GI50 with NCI-H522, in the test on EKVX and with MOLT-4 were 3.32 µM (inactive), 2.75 µM (inactive) and 4.29 µM (inactive), respectively.

As to `COC(=O)[C@H]1C[C@H]1NC(=O)C(CC(=O)OCc1ccccc1)NC(=O)OCc1ccccc1` (some centres not stated), the GI50 is 29.8 µM (inactive) in the test with SR; 89.5 µM (inactive) with NCI-H226; 50.7 µM (inactive) with SF-295; 44.1 µM (inactive) in the test on MCF7; 86.7 µM (inactive) with UACC-257; 83 µM (inactive) in the test on LOX IMVI. Moreover, the GI50 in the test on COLO 205 was 24.4 µM (inactive); with OVCAR-5, > 100 µM (inactive); in the test on HL-60 it was 17.9 µM (inactive); in the test with TK-10 it was 74.6 µM (inactive); with HT-29 it was 39 µM (inactive); in the test with HCT-15, 73.1 µM. Moreover, the GI50 was 40.8 µM (inactive) in the test on NCI-H522, 44.3 µM (inactive) in the test with EKVX and 29.2 µM (inactive) with MOLT-4.

With `O=c1[nH]c(NCc2cccnc2)nc2[nH]cnc12`, the GI50 in the test with UACC-62, in the test with NCI-H226, in the test on SF-295, with MCF7, with UACC-257 and in the test on LOX IMVI was > 100 µM (inactive) throughout. For the same compound, the GI50 in the test on CAKI-1, with COLO 205, in the test with HOP-92, with OVCAR-5, in the test on RXF 393 and with TK-10 was > 100 µM (inactive) each time. Besides, the GI50 in the test with HT-29 was > 100 µM (inactive); in the test with HCT-15, > 100 µM; with NCI-H522, 41.4 µM (inactive); in the test with EKVX, > 100 µM (inactive); in the test with MOLT-4, > 100 µM (inactive).

For the compound `COc1ccc2oc(=O)c3c(c2c1C)OC(C)(C)C=C3`, the GI50 with SR, with UACC-62, in the test on NCI-H226, in the test with SF-295, in the test with MCF7 and in the test on UACC-257 was > 100 µM (inactive) each time. Also, the GI50 in the test on LOX IMVI, in the test on CAKI-1, in the test with COLO 205, with OVCAR-5, in the test on HL-60 and in the test on TK-10 was > 100 µM (inactive) throughout. The GI50 in the test on HT-29 is > 100 µM (inactive); in the test on HCT-15, > 100 µM; in the test on NCI-H522, > 100 µM (inactive); in the test on EKVX, > 100 µM (inactive); in the test with MOLT-4, 44.1 µM (inactive).

As for `CCOC(=O)c1cnc(-n2[nH]c3c(c2=O)CCCC3)[nH]c1=O`, the GI50 in the test with SR was 13.3 µM (inactive); in the test on UACC-62 it was 29.6 µM (inactive); in the test with NCI-H226, 47.1 µM (inactive); in the test with SF-295, 62.7 µM (inactive); in the test with UACC-257, 32.4 µM (inactive); in the test on CAKI-1, 48.1 µM (inactive). The GI50 is 26.2 µM (inactive) in the test on COLO 205; 0.859 µM (active) in the test with HOP-92; 82.4 µM (inactive) in the test on OVCAR-5; 28.1 µM (inactive) in the test with HL-60; > 100 µM (inactive) in the test on TK-10; 40.4 µM (inactive) in the test with HT-29. The GI50 with HCT-15 was 44.1 µM; in the test on NCI-H522, 52.4 µM (inactive); with EKVX, 80.4 µM (inactive); in the test on MOLT-4, 43 µM (inactive).

In the case of `COc1ccc(C(=O)/C=C/c2ccc(OCCSCCCCCCCCCCSCCOc3ccc(/C=C/C(=O)c4ccc(OC)c(OC)c4)cc3)cc2)cc1OC`, the GI50 in the test with SR, in the test with UACC-62, in the test on SF-295, with MCF7, with UACC-257 and in the test with LOX IMVI was > 100 µM (inactive) each time. For the same compound, the GI50 in the test on CAKI-1 was > 100 µM (inactive); with COLO 205, > 100 µM (inactive); in the test with HL-60 it was > 100 µM (inactive); in the test on TK-10, > 100 µM (inactive); in the test on HT-29, > 100 µM (inactive); with HCT-15, > 100 µM. Besides, the GI50 with NCI-H522 is 73.8 µM (inactive); in the test with EKVX, > 100 µM (inactive); in the test on MOLT-4, > 100 µM (inactive).

As to `COc1ccc2nc3n(c2c1)CCc1cc(OC)c(OC)cc1-3`, the GI50 in the test on UACC-62 is 32.3 µM (inactive); with NCI-H226 it was 54.3 µM (inactive); in the test with SF-295 it was 50.9 µM (inactive); with MCF7, 42.5 µM (inactive); in the test with UACC-257 it was 55 µM (inactive); in the test on LOX IMVI it was 45.8 µM (inactive). In addition, the GI50 is 42.4 µM (inactive) with CAKI-1; 26.1 µM (inactive) with COLO 205; 56 µM (inactive) with HOP-92; > 100 µM (inactive) in the test with OVCAR-5; > 100 µM (inactive) in the test with RXF 393; 44.6 µM (inactive) with HL-60. Besides, the GI50 was 86.3 µM (inactive) with TK-10; 26.7 µM (inactive) with HT-29; 33.5 µM in the test on HCT-15; 32.2 µM (inactive) with NCI-H522; 42.4 µM (inactive) with EKVX.

Turning to `Cc1cc2c3c(ccc4[nH]cc(c43)CN2c2ccc(NS(C)(=O)=O)cc2)n1`, the GI50 in the test on UACC-62 is > 100 µM (inactive); in the test with NCI-H226, 28.3 µM (inactive); in the test on SF-295, 51.9 µM (inactive); in the test with MCF7 it was 65 µM (inactive); in the test with UACC-257, > 100 µM (inactive); with LOX IMVI, > 100 µM (inactive). For the same compound, the GI50 is 25.9 µM (inactive) in the test on CAKI-1; > 100 µM (inactive) in the test on COLO 205; 24.5 µM (inactive) with HOP-92; > 100 µM (inactive) in the test on OVCAR-5; 28.9 µM (inactive) in the test with RXF 393; 28.1 µM (inactive) in the test on HL-60. The GI50 with TK-10 was 26.2 µM (inactive); in the test with HT-29, > 100 µM (inactive); with HCT-15, > 100 µM; with NCI-H522, 5.75 µM (inactive); in the test on EKVX it was 26.8 µM (inactive); with MOLT-4, 3.02 µM (inactive).

Consider `CCOc1cc2c(=O)oc3c(OC)ccc4ccc(c1OC)c2c43`, for which the GI50 with UACC-62 is > 100 µM (inactive); in the test on NCI-H226, 60 µM (inactive); in the test with SF-295, 96.8 µM (inactive); in the test with MCF7 it was > 100 µM (inactive); with UACC-257 it was > 100 µM (inactive); with LOX IMVI, > 100 µM (inactive). Further, the GI50 with CAKI-1 is > 100 µM (inactive); in the test on COLO 205, > 100 µM (inactive); in the test with HOP-92, > 100 µM (inactive); in the test on OVCAR-5 it was > 100 µM (inactive); in the test on RXF 393, 52.7 µM (inactive); in the test with HL-60, > 100 µM (inactive). For the same compound, the GI50 in the test on TK-10 is > 100 µM (inactive); in the test with HT-29 it was 97.5 µM (inactive); in the test on HCT-15 it was > 100 µM; in the test on NCI-H522, 16.7 µM (inactive); with EKVX, > 100 µM (inactive); in the test on MOLT-4, > 100 µM (inactive).

`COc1cc2c(c(OC)c1)[C@H](C)N(Cc1ccccc1)C(C)C2` (some centres not stated): the GI50 is 25.8 µM (inactive) in the test on SR; 52.5 µM (inactive) in the test with UACC-62; 23.7 µM (inactive) in the test on NCI-H226; 16.3 µM (inactive) in the test with SF-295; 42.2 µM (inactive) in the test on MCF7; 67.8 µM (inactive) in the test with UACC-257. Also, the GI50 is 30.1 µM (inactive) in the test on LOX IMVI; 64.9 µM (inactive) with CAKI-1; 29.5 µM (inactive) in the test on COLO 205; 4.88 µM (inactive) with HL-60; 37.2 µM (inactive) in the test on TK-10; 9.57 µM (inactive) with HT-29. In addition, the GI50 was 28.6 µM in the test with HCT-15, > 100 µM (inactive) with NCI-H522, > 100 µM (inactive) with EKVX and 22.7 µM (inactive) with MOLT-4.

Turning to `CC(=O)C1C(=O)C(=O)N(c2ccc([N+](=O)[O-])cc2)C1=O` (configuration not stated), the GI50 with UACC-62, with NCI-H226, in the test on SF-295, with MCF7, in the test on UACC-257 and in the test with LOX IMVI was > 100 µM (inactive) in each case. Also, the GI50 in the test on CAKI-1, with COLO 205, in the test with HOP-92, in the test with OVCAR-5, in the test with RXF 393 and in the test with HL-60 was > 100 µM (inactive) throughout. Further, the GI50 with TK-10 was > 100 µM (inactive); in the test with HT-29 it was > 100 µM (inactive); in the test with HCT-15, > 100 µM; in the test on NCI-H522 it was > 100 µM (inactive); with EKVX, > 100 µM (inactive); with MOLT-4 it was > 100 µM (inactive).

The values are drawn from ChEMBL document CHEMBL1201862, “PubChem BioAssay data set” (2004).
